# Assay results published in patent US4699928A, “Fluoroallylamine derivatives” (Merrell Dow Pharmaceuticals Inc., priority 1986, dated 1987).
# Experiments:
# [1] = tested on: MAO; assay: Inhibition of MAO in vitro, partially purified rat brain mitochondria, 14C p-tyramine substrate; assay type: biochemical; details: tested as hydrochloride salt
# Source text: Inhibition of MAO--In vitro testing
# (A) The ability of a compound of Formula I to inhibit MAO can be determined in vitro by the method of A. Christmas et al., Br. J. Pharmacol., 45, 490 (1972) in partially purified mitochondria from rat brain using ^14 C p-tyramine as the substrate. The MAO inhibitory activity of a compound is expressed as the "IC50 " value, which is the molar concentration required to produce 50% inhibition of the enzyme.
# [2] = tested on: MAO; assay: Time-dependent kinetics and irreversibility of MAO inhibition, rat brain mitochondria, 14C p-tyramine; assay type: biochemical
# Description: (B) The compounds of Formula I can be tested to determine whether or not the MAO inhibition follows time-dependent kinetics by the procedure described below:
# Mitochondria are prepared from rat brain by homogenation in phosphate buffer (0.1 M, pH 7.2) followed by differential centrifugation. The mitochondria are suspended in the same buffer, the test compound is added at the desired concentration, and the system is incubated. At different time intervals, aliquots are taken and MAO activity is measured using ^14 C p-tyramine (a mixed substrate) as the substrate (See A. Christmas et al., supra).
# [3] = tested on: MAO; assay: Inhibition of MAO ex vivo, p-tyramine as substrate; assay type: in vivo, male Sprague-Dawley rats; details: 18 h, 14C p-tyramine
# Description: (§1) The ability of a compound of Formula I to inhibit MAO can be determined ex vivo by the following procedure:
# (§2) The test compound is administered orally (p.o.) to 300-350 g male Sprague-Dawley rats (Charles River, France) and the animals are killed 18 hours after treatment. The brain, heart, liver and/or duodenum is removed and either a crude homogenate or a mitochondrial fraction, described in Example 5, Part (A), is prepared. MAO activity is determined in the homogenates using ^14 C p-tyramine, as the substrate. Table III gives the results of the testing of (Z)-2-(2',4'-dichlorophenoxy)methyl-3-fluoroallylamine according to the above described procedure. Selectivity can be determined by repeating the above-described test using either ^14 C […] (for MAO-A) or ^14 C phenethylamine (for MAO-B) as the substrate for determining the percentage inhibition.
# [4] = tested on: MAO-B; assay: Inhibition of MAO ex vivo, phenethylamine as substrate (MAO-B); assay type: in vivo, male Sprague-Dawley rats; details: for % Inhibition, Brain (2) / % Inhibition, Duodenum (2) / % Inhibition, Heart (2) / % Inhibition, Liver (2): 18 h, 14C phenethylamine
# Description: as §1, §2
# [5] = tested on: MAO-A; assay: Inhibition of MAO-A ex vivo; assay type: in vivo, male Sprague-Dawley rats; details: p.o.; 1080 min
# Description: as §1, §2
# [6] = tested on: heart monoamines and their metabolites; assay: Inhibition of MAO in vivo: heart monoamines and their metabolites (HPLC); parameters: species or system male Sprague-Dawley rats; NE, Table V (heart) / DOPAC, Table V (heart) / 5HT, Table V (heart) / 5HIAA, Table V (heart): unit not given beside the values; details: for 5HIAA, Table V (heart) / DOPAC, Table V (heart) / NE, Table V (heart) / HVA, Table V (heart) / 5HT, Table V (heart): 18 h; for 5HIAA, Table V (heart): control 7 ± 1; for DOPAC, Table V (heart): control 78 ± 22; for NE, Table V (heart): control 735 ± 100; for HVA, Table V (heart): control 38 ± 9; for 5HT, Table V (heart): control 808 ± 50
# Description: The ability of a compound of Formula I to inhibit MAO can be determined in vivo using brain and heart samples obtained from the ex vivo study reported in Example 9. Monoamines and their deaminated metabolites were determined by HPLC with electrochemical detection by the method of J. Wagner et al, J. Neurochem. 38 1241-1254.
# When (Z)-2-(2',4'-dichlorophenoxy)methyl-3-fluoroallylamine is tested according to the above-described procedure, the results given in Tables IV and V are obtained. In these tables the following abbreviations are used: […]
# [7] = tested on: heart rate response to p-tyramine; assay: Cheese effect: potentiation of response to intravenous p-tyramine, pithed rats; assay type: in vivo, male Sprague-Dawley rats; details: for Potentiation of heart rate response to p-tyramine: 18 h, p-tyramine i.v.
# Description: (§3) The following test procedures can be employed to assess the potential of a compound of Formula I for producing the "cheese effect": […]
# (§4) Eighteen hours later the animals are anaesthetized with pentobarbitone (60 mg/kg i.p.), in some instances pithed, and in all cases set up for recording heart rate and blood pressure by standard techniques.
# [8] = tested on: heart rate response to p-tyramine; assay: Cheese effect: potentiation of response to intraduodenal p-tyramine, anaesthetized rats; assay type: in vivo, male Sprague-Dawley rats; details: 18 h, p-tyramine i.d.
# Description: as §3, §4
smiles,measurement,setting,value
"NC/C(=C/F)COc1ccc(Cl)cc1Cl [(z)-2-(2',4'-dichlorophenoxy)methyl-3-fluoroallylamine]",IC50,[1],0.15 µM
same,MAO inhibitory activity versus time of incubation,[2]; 14C p-tyramine,increased as a function of time of incubation
same,irreversibility of MAO inhibition,[2]; dialysis against phosphate buffer (24 hours),irreversible
same,initial rate of decrease of activity,[2]; versus concentration of inhibitor,increased with increasing concentration of inhibitor
same,"% Inhibition, Brain (1)",[3]; 1 mg/kg po,41%
same,"% Inhibition, Duodenum (1)",[3]; 1 mg/kg po,10%
same,"% Inhibition, Heart (1)",[3]; 1 mg/kg po,27%
same,"% Inhibition, Liver (1)",[3]; 1 mg/kg po,0%
same,"% Inhibition, Brain (1)",[3]; 2.5 mg/kg po,23%
same,"% Inhibition, Duodenum (1)",[3]; 2.5 mg/kg po,26%
same,"% Inhibition, Heart (1)",[3]; 2.5 mg/kg po,0%
same,"% Inhibition, Liver (1)",[3]; 2.5 mg/kg po,9%
same,"% Inhibition, Brain (1)",[3]; 5 mg/kg po,34%
same,"% Inhibition, Duodenum (1)",[3]; 5 mg/kg po,55%
same,"% Inhibition, Heart (1)",[3]; 5 mg/kg po,0%
same,"% Inhibition, Liver (1)",[3]; 5 mg/kg po,21%
same,"% Inhibition, Brain (1)",[3]; 10 mg/kg po,55%
same,"% Inhibition, Duodenum (1)",[3]; 10 mg/kg po,57%
same,"% Inhibition, Heart (1)",[3]; 10 mg/kg po,0%
same,"% Inhibition, Liver (1)",[3]; 10 mg/kg po,25%
same,"% Inhibition, Brain (1)",[3]; 25 mg/kg po,73%
same,"% Inhibition, Duodenum (1)",[3]; 25 mg/kg po,65%
same,"% Inhibition, Heart (1)",[3]; 25 mg/kg po,32%
same,"% Inhibition, Liver (1)",[3]; 25 mg/kg po,55%
same,"% Inhibition, Brain (2)",[4]; 1 mg/kg po,85%
same,"% Inhibition, Duodenum (2)",[4]; 1 mg/kg po,73%
same,"% Inhibition, Heart (2)",[4]; 1 mg/kg po,40%
same,"% Inhibition, Liver (2)",[4]; 1 mg/kg po,57%
same,"% Inhibition, Brain (2)",[4]; 2.5 mg/kg po,90%
same,"% Inhibition, Duodenum (2)",[4]; 2.5 mg/kg po,82%
same,"% Inhibition, Heart (2)",[4]; 2.5 mg/kg po,31%
same,"% Inhibition, Liver (2)",[4]; 2.5 mg/kg po,67%
same,"% Inhibition, Brain (2)",[4]; 5 mg/kg po,93%
same,"% Inhibition, Duodenum (2)",[4]; 5 mg/kg po,95%
same,"% Inhibition, Heart (2)",[4]; 5 mg/kg po,40%
same,"% Inhibition, Liver (2)",[4]; 5 mg/kg po,89%
same,"% Inhibition, Brain (2)",[4]; 10 mg/kg po,96%
same,"% Inhibition, Duodenum (2)",[4]; 10 mg/kg po,96%
same,"% Inhibition, Heart (2)",[4]; 10 mg/kg po,40%
same,"% Inhibition, Liver (2)",[4]; 10 mg/kg po,90%
same,"% Inhibition, Brain (2)",[4]; 25 mg/kg po,98%
same,"% Inhibition, Duodenum (2)",[4]; 25 mg/kg po,98%
same,"% Inhibition, Heart (2)",[4]; 25 mg/kg po,64%
same,"% Inhibition, Liver (2)",[4]; 25 mg/kg po,95%
same,preferential inhibition of MAO-B in the four tissues,[4]; at the dose levels tested (1-25 mg/kg po),preferential inhibition of MAO-B
same,inhibition of brain MAO-B,[4]; doses as low as 1 mg/kg p.o.,greater than 80%
same,dose needed to inhibit MAO-A activity by more than 50%,[5],greater than 5 mg/kg
same,"5HIAA, Table V (heart)",[6]; 1 mg/kg p.o.,16 ± 4
same,"DOPAC, Table V (heart)",[6]; 1 mg/kg p.o.,56 ± 11
same,"NE, Table V (heart)",[6]; 1 mg/kg p.o.,741 ± 56
same,"HVA, Table V (heart)","[6]; 1 mg/kg p.o., p <0.02",71 ± 6
same,"5HT, Table V (heart)","[6]; 1 mg/kg p.o., spread ± 79",1017
same,"5HIAA, Table V (heart)",[6]; 2.5 mg/kg p.o.,7 ± 1
same,"HVA, Table V (heart)",[6]; 2.5 mg/kg p.o.,53 ± 8
same,"DOPAC, Table V (heart)",[6]; 2.5 mg/kg p.o.,46 ± 12
same,"NE, Table V (heart)",[6]; 2.5 mg/kg p.o.,762 ± 20
same,"5HT, Table V (heart)","[6]; 2.5 mg/kg p.o., spread ± 108",995
same,"5HIAA, Table V (heart)",[6]; 5 mg/kg p.o.,20 ± 6
same,"HVA, Table V (heart)",[6]; 5 mg/kg p.o.,60 ± 16
same,"DOPAC, Table V (heart)",[6]; 5 mg/kg p.o.,56 ± 7
same,"NE, Table V (heart)",[6]; 5 mg/kg p.o.,875 ± 53
same,"5HT, Table V (heart)","[6]; 5 mg/kg p.o., spread ± 154",1018
same,"5HIAA, Table V (heart)",[6]; 10 mg/kg p.o.,14 ± 2
same,"HVA, Table V (heart)",[6]; 10 mg/kg p.o.,55 ± 3
same,"DOPAC, Table V (heart)",[6]; 10 mg/kg p.o.,62 ± 5
same,"NE, Table V (heart)",[6]; 10 mg/kg p.o.,729 ± 58
same,"5HT, Table V (heart)","[6]; 10 mg/kg p.o., spread ± 82",850
same,"DOPAC, Table V (heart)",[6]; 25 mg/kg p.o.,87 ± 27
same,"NE, Table V (heart)",[6]; 25 mg/kg p.o.,765 ± 50
same,"5HIAA, Table V (heart)","[6]; 25 mg/kg p.o., p <0.02",26 ± 4
same,"HVA, Table V (heart)","[6]; 25 mg/kg p.o., p <0.02",65 ± 4
same,"5HT, Table V (heart)","[6]; 25 mg/kg p.o., spread ± 113",685
same,"monoamines or their metabolites in the heart, in words",[6]; 1-25 mg/kg p.o.,no consistent changes
same,Potentiation of heart rate response to p-tyramine,"[7]; 10 mg/kg by mouth, in words",none
same,"cardiovascular responses to tyramine injected intravenously, in words",[7]; 10 mg/kg p.o. 18 h prior to testing,affected to only a small extent
same,Potentiation of heart rate response to p-tyramine,[7]; 25 mg/kg by mouth,2.8 fold
same,potentiation of tyramine,"[7]; 25 mg/kg, two experiments",2-3 fold
same,Potentiation of heart rate response to p-tyramine,[8]; 5 mg/kg by mouth,1.5 fold
same,Potentiation of heart rate response to p-tyramine,[8]; 10 mg/kg by mouth,2.4 fold
same,Potentiation of heart rate response to p-tyramine,[8]; 25 mg/kg by mouth,2.0 fold
